Experimental data: US20240374779A1, “ANTIMICROBIAL ARTICLES, METHODS OF MAKING AND USING SAME” (TERASAKI INSTITUTE FOR BIOMEDICAL INNOVATION, priority 2021, published 2024)

What was measured:
[1] = rats; cited from earlier work
[2] = hydrogen peroxide release kinetics from microspheres (dissolved oxygen in PBS with catalase); format: physicochemical; conditions: early stages (0-3 days); levels decreased gradually
Description: The hydrogen peroxide release kinetics of the CPO/PLGA MPS were determined indirectly by measuring the dissolved oxygen levels in phosphate buffered saline (PBS) after breaking down the hydrogen peroxide with catalase. Dissolved oxygen levels were measured by an oxygen sensor probe (ISO-OXY-2, World Precision Instruments), which was connected to the free radical analyzer (TBR1025, World Precision Instruments). MPS with different CPO loading and MPS with different dimensions were evaluated. […] Catalase was used to catalyze the decomposition of hydrogen peroxide to water and oxygen. […] After fully flushed, the hypoxic chamber with glass vials containing samples was sealed and placed into a cell culture incubator at 37° C.

C. difficile spores = conditions: similar concentrations (about 100 ppm) of vaporized hydrogen peroxide; cited from earlier work

NC(N)=O [Urea]
LD50 [1]: about 15 g/kg

[Ca+2].[O-][O-] [free CPO, calcium peroxide]
peroxide levels with free CPO in PBS [2]: Elevated peroxide levels

OO [vaporized hydrogen peroxide, hydrogen peroxide]
time to eradicate C. difficile spores (C. difficile spores): ≤ 20 min
